Test: Charge density (q/m, charges per addenda metal ion) of POT anions
Format: physicochemical
Details: for Charge density q/m of the anion: Wells–Dawson POTs and their products; for Charge density q/m of POT product Hx[α2-P2W17O61](10−x)−, x = 3 / Charge density q/m of POT product Hx[α2-P2W17O61](10−x)−, x = 4: product formed from the educt at pH 6.8
Source text: The charge density of POMs, expressed in number of charges (q) per addenda metal ions (m), is a criterion to characterize the chaotropic behavior of POMs (Table S6)[49]–[53]. […] The activity of [P2W18]^6−, [P2W17]^10− and [P2W15]^12− solutions correlates with the amount of the dominant monolacunary anion [α2-P^V2W^VI17O61]^10− in Na-citrate buffer at pH 6.8 (Fig. 3, Scheme S1). For the unprotonated form of the active monolacunary Wells–Dawson anion [α2-P^V2W^VI17O61]^10− the q/m ratio is 0.59 (Table 2), however, the protonation of this anion in neutral solutions has previously been shown by electrochemical analysis in combination with theoretical calculations[47],[55]. For POMs the proton affinity difference between the terminal and bridging oxygen is around 11 kcal mol^−1[56], proving that the four oxygen atoms surrounding the lacuna are much more basic than the bridging and terminal O atoms (Fig. 1B), and thus prone to protonation. Electrospray-ionization mass spectrometry (ESI–MS) has already been successfully used for the protonation states assignment of Wells–Dawson POTs containing different heteroatoms. Consequently, ESI–MS has been applied to investigate the protonation state of monolacunary [α2-P^V2W^VI17O61]^10−. When recording ESI–MS for POMs in Na-citrate buffer, the relative intensity of citrate anion signals is almost 100%, suppressing POM signals. […] The spectra recorded in both solvents show signals for NaH4[α2-P^V2W^VI17O61]^5- at 838.0 and NaKH3[α2-P^V2W^VI17O61]^5- at 845.6 m/z, while species with lower protonation states have not been detected (Fig. S19). Therefore, the monolacunary anion [α2-P^V2W^VI17O61]^10− is present as the three-fold protonated anion H3[α2-P^V2W^VI17O61]^7- with a charge density of 0.41 and the four-fold protonated anion H4[α2-P^V2W^VI17O61]^6− with a charge density of 0.35. The predominant species in [P2W12]^12− is the wheel-shaped [P^V8W^VI48O184]^40− (23%), which can be protonated to H16[P^V8W^VI48O184]^24−[58] q/m = 0.5. Due to the compositional complexity of the hexalacunary anion it is impossible to accurately correlate its activity with the POTs’ charge density.
10 Summary of POT charge densities of Keggin and Wells-Dawson POTs
In order to facilitate comparison of the inhibitory capacities of the Keggin and Wells-Dawson POT samples tested in our laboratory against AbPPO4 and to obtain a structure-activity correlation, the charge densities (anionic charge per W addenda atom) of the species present […]
the charge densities, the following stability windows for POTs can be identified:
1) intact closed clusters: q/m ≈ 0.33 – 0.50
Structures with higher charge densities were not analyzed. Structures with a q/m value lower than 0.33 are prone to hydrolysis or reduction under suitable conditions, both leading to an increase in charge density.
2) lacunary clusters: q/m = 0.35 – 0.45
Structures with lower charge densities were not analyzed. Structures with a q/m value higher than 0.45 achieve stabilization by taking up protons for charge compensation. However, too […]
these pathways result in a decrease in charge density.
Overall, the preferred stable charge densities at neutral pH of both the intact and lacunary POTs […]
for intact clusters. This seems to be an intrinsic POT property as a combined result of 1) the reactivity of lacunary oxygen sites and 2) the hydrolytic susceptibility to hydroxide anions in aqueous solution in competition with electrostatic repulsion with the anionic POT charge. […]
metal centers in their oxygen-bound environment.
The scenario is different when looking at the POT interaction with the enzyme AbPPO4. Among […]
values show a clear correlation to the q/m values, with the lowest charge density corresponding to the highest protein affinity. But going to the larger Wells-Dawson archetype, comparing the active lacunary species H [PVWVI O ]4- (Keggin) and H [α -PV WVI O ](10-x)- (x = 3 or 4) (Wells- […]
charge densities. As stated in the main text, the basic inhibition effect shown by the Wells- […]

| Substance | Charge density q/m of the anion (listed as H2[PV2WVI12O48]12-) | Charge density q/m of the anion (listed as H2[P^V2W^VI12O48]^12−) | Charge density q/m of the anion | Charge density q/m of POT product Hx[α2-P2W17O61](10−x)−, x = 3 | Charge density q/m of POT product Hx[α2-P2W17O61](10−x)−, x = 4 | Charge density q/m of the anion (listed as [PV2WVI15O56]12-) | Charge density q/m of the anion (listed as [P^V2W^VI15O56]^12−) |
| --- | --- | --- | --- | --- | --- | --- | --- |
| (NH4)12[H2P^V2W^VI12O48]·24H2O [[P2W12]^12−] | 1.00 | 1 | – | – | – | – | – |
| K6[α/β-P^V2W^VI18O62]·14H2O [[P2W18]^6−] | – | – | 0.33 | 0.41 | 0.35 | – | – |
| K10[α2-P^V2W^VI17O61]·20H2O [[P2W17]^10−] | – | – | 0.59 | 0.41 | 0.35 | – | – |
| K12[P^V2W^VI15O56]·24H2O [[P2W15]^12−] | – | – | – | 0.41 | 0.35 | 0.80 | 0.8 |

— publication PMC8481536, “Wells–Dawson phosphotungstates as mushroom tyrosinase inhibitors: a speciation study” (Scientific Reports, 2021)
